Paper PMC9763021, “Comprehensive Assessment of Biomolecular Interactions of Morpholine-Based Mixed Ligand Cu(II) and Zn(II) Complexes of 2,2′-Bipyridine as Potential Anticancer and SARS-CoV-2 Agents: A Synergistic Experimental and Structure-Based Virtual Screening” (Bioinorganic Chemistry and Applications, 2022)

Each compound was assayed on CT-DNA (assay: DNA cleavage by gel electrophoresis in H2O2 environment). Details: DNA + H2O2, Tris-HCl pH 7.4, agarose gel.
Format: biochemical, calf thymus
Method: The characteristics were examined of all substances along with DNA containing H2O2 and Tris-HCl buffer solution (pH: 7.4). The tank solution's gel layer was lifted out after the experiment was finished and put in front of a UV transilluminator. Additionally, each band lane was scrutinized with control (DNA + H2O2).
Using the gel electrophoresis method, the DNA nuclease properties for all samples were assessed under the H2O2 environment. The examined DNA nuclease efficacy for all complexes (1a-2a) was contrasted with free ligand (HL) and CT-DNA alone. The raw data for electrophoretic gels and blots were also enclosed in the electronic supplementary file (Figure S15). In Figure 1, no substantial nuclease activity can be seen in the control (lane 1; DNA + H2O2) even after a lot of time has passed and the free ligand (HL) (lane: 2) was monitored as immobile in an H2O2 environment. […] Furthermore, ROS include O2^•−, H2O2, OH^•, ROOH, ROO^•, HOCl, and ^1O2 (singlet oxygen) and ozone (O3), which play essential roles in living systems. Consequently, it has commonly been acknowledged that ROS plays a dual physiological role in controlling a variety of illnesses as well as cellular homeostasis (self-regulating processes such as thermoregulation, blood glucose regulation, calcium/potassium homeostasis, and osmoregulation). […] Additionally, it is widely known that NADPH oxidase generates reactive oxygen species as a portion of its antibacterial effect on phagocytic cells. Nevertheless, these types of enzymes seem to be present in a variety of other cells as well and may have significant signalling pathway functions. When noncarcinogenic toxicity events occur, ROS has the ability to alter cell function as well as affect the genes of cancer at several levels. OH^• can attack DNA, proteins, and lipids due to its high reactivity among ROS. The hydroxyl radical is a key participant in free radical-mediated hazardous reactions because of its great reactivity. The free radicals are also essential for the redox regulation of many cellular signalling pathways and proper cellular functions. […]
For [O-]c1ccccc1N=Cc1ccc(N2CCOCC2)cc1.[O-]c1ccccc1N=Cc1ccc(N2CCOCC2)cc1.[Zn+2].c1ccc(-c2ccccn2)nc1 [(2a), [Zn(L)2(bpy)]], the “DNA cleavage (nuclease activity)” value was “partially cleaves DNA”. With [Cu+2].[O-]c1ccccc1N=Cc1ccc(N2CCOCC2)cc1.[O-]c1ccccc1N=Cc1ccc(N2CCOCC2)cc1.c1ccc(-c2ccccn2)nc1 [(1a), [Cu(L)2(bpy)]] the “DNA cleavage (nuclease activity)” value was “complete DNA cleavage”. In the case of Oc1ccccc1N=Cc1ccc(N2CCOCC2)cc1 [(HL), 2-(4-morpholinobenzylideneamino)phenol], the “DNA cleavage (nuclease activity)” value is reported as “immobile”.
